Results from patent US12329852B2, “Sustained-release 9-cis retinoic acid implantable drug delivery pellets for the prevention of postsurgical edema and lymphedema” (UNIVERSITY OF SOUTHERN CALIFORNIA, priority 2019, dated 2025).
“Also recorded” adds a separate entry of the source. Read-outs that look alike come from different tables or passages of the source.

Columns and labels:
tail lymphedema [1] = test: Mouse tail secondary lymphedema model, tail volume (intraperitoneal injection); type: in vivo, BALB/c mice
Procedure: All experiments were performed in accordance with the The Guide for the Care and Use of Laboratory Animals (National Research Council, 8th ed, 2011) and the Animal Welfare Act. Our protocol was approved by the University of Southern California Institutional Animal Care and Use Committee. Fifty adult BALB/c mice, 12 to 14 weeks old, weighing between 21 and 30 g were purchased from Jackson Laboratories (Jackson, Bar Harbor, ME). Animals were maintained in a temperature and light-controlled environment with ad libitum access to a normal chow diet and water.
A previously well described tail model to induce lymphedema was modified in the present experiments. Mice were anesthetized using 2.5% isofluorane, and a 5-mm wide circumferential skin excision was made 20-mm from the base of the tail. Underlying lymphatic vessels were visualized using isosulfan blue and ligated under a dissecting surgical microscope. Daily bacitracin antibiotic ointment was applied to the surgical site to prevent wound infection and desiccation.
Animals were randomly assigned to one of five groups following surgery: control, 7 days, 14 days, 45 days, and delay. Mice received daily intraperitoneal injections of either 100 μL vehicle solution (90 μL sunflower seed oil/10 μL 100% ethanol) or 0.08 mg/kg 9-cis RA dissolved in 100 μL of vehicle solution [5]. The treatment administered to each group was: (1) control: vehicle for 45 days following surgery, (2) 7 day: 9-cis RA for 7 days, (3) 14 day: 9-cis RA for 14 days, (4) 45 day: 9-cis RA for 45 days, and (5) delay: 9-cis RA for 7 days beginning one week after surgery. Animals with necrotic tails or that developed surgical site infections were sacrificed and excluded from analysis.
Animals were photographed every five days for a 6-week duration, and tail diameter was measured using ImageJ (National Institutes of Health, Bethesda, MD). Measurements were taken at 5-mm intervals from the distal-most edge of the wound for a total of seven measurements per animal for every time point. Total distal tail volume was calculated using the truncated cone formula [8]. Percent change in distal tail volume was recorded, analyzed, and plotted using GraphPad Prism 7 (GraphPad Software, Inc.).

tail lymphedema [2] = test: Indocyanine green lymphangiography of tail (intraperitoneal injection); type: in vivo, BALB/c mice; conditions: day 45; for ICG fluorescent intensity compared to control: 48 hours after injection
Procedure: On Day 45, animals were anesthetized using 2.5% isofluorane, and 5 μL of 2.5 mg/mL indocyanine green (ICG) was injected into the distal end of each animal's tail 15 minutes prior to imaging. The SPY Elite Fluorescence Imaging System (Novadaq Technologies, BC, Canada) was used to capture fluorescent images and heat maps of the tails at 0, 1, 2, 3, 6, 12, 24, and 48 hours following ICG injection. Capture conditions were kept constant throughout the trial. Fluorescent intensity of the tails at each time point was quantified using a previously described method for measuring cell fluorescence in ImageJ [4, 7]. Values were then recorded and plotted using GraphPad Prism 7. Percent change in fluorescent intensity from the peak fluorescent uptake at 6 hours was used to measure ICG clearance.

tail lymphedema [3] = test: Oral administration, tail lymphedema, lymphatic clearance; type: in vivo, BALB/c mice; conditions: oral gavage for 6 weeks
Procedure: (§3) Oral administration experiments were performed on 30 adult BALB/c mice, 12 to 14 weeks old, and weighing between 21 and 30 g. Surgical excision of lymphatic vessels at 20-mm from the base of the tail was performed in order to induce secondary lymphedema. Mice receive 9-cis RA dissolved in sunflower oil via oral gavage for 6 weeks in accordance to the dosing regimes in Table 3.

[4] = mouse, in vivo, po
Procedure: as §3

[5] = system: lymphatic vessels of uninjured ears; test: Lymphatic analysis of uninjured ears, LYVE-1 whole mount; type: in vivo, BALB/c mice; conditions: 0.08 mg/kg daily i.p., any duration
Procedure: Bilateral ears of animals were harvested simultaneously with the diaphragm, removed of all hair using depilatory cream and fixed in 4% paraformaldehyde. The ears were then split between the inner and outer layers under a dissecting microscope and the cartilage removed prior to immunoflourescence staining. The whole mounted specimens were subsequently stained with anti-LYVE-1 and anti-CD-31 antibodies after washing with PBS, permeabilizing with 0.5% Triton X-100 (Sigma-Aldrich, USA), and incubated with the primary antibody (1:500) overnight. Green secondary antibodies (1:200 donkey anti-rabbit Alexa Fluor 488, Thermo Fisher Scientific, Canoga Park, CA) were used to stain for LYVE-1.
(§1) Slides were counterstained with hematoxylin and mounted. All images were obtained with a Keyence BZ-X700 microscope (Itasca, IL) and epidermal and dermal thickness was measured using ImageJ (National Institutes of Health, Betheseda, MD). The thickest part of the epidermis and dermis was measured in 5 high-power fields per section, as previously described. On the immunohistochemically stained slides, podoplanin stained vessels in the dermis and subcutis were quantified in ImageJ. Two high-power fields per section were randomly selected and then analyzed by a blinded reviewer. The reviewer scored the number of podoplanin stained vessels and the area (mm^2) of the dermis and subcutaneous tissue in each image. […]

tail lymphedema [6] = test: Lymphatic vessel density, podoplanin immunohistochemistry of tail; type: in vivo, BALB/c mice; conditions: 0.08 mg/kg daily i.p.
Procedure: (§2) Tail specimens were collected on post-operative day 47. Specimens were harvested to include 1 cm proximal and 1 cm distal the wound, then divided to separate proximal and distal portions. Tails were inked to enable proper orientation, fixed in 10% neutral buffered formalin overnight, decalcified in 10% EDTA (pH: 7.3) for 6 days at 4° C., embedded in paraffin, sectioned at 3-5 μm, then stained with hematoxylin and eosin (H&E) or via immunohistochemical techniques. In summary, sections were deparaffinized, underwent antigen retrieval with sodium citrate buffer, incubated overnight with the primary antibody (1:200) at 4° C., washed, incubated with a suitable secondary antibody (1:200), then stained with immPACT DAB Substrate (Vector Laboratories, Inc, Burlingame, CA) and counterstained with Delafield Hematoxylin (Sigma-Aldrich, USA) diluted 1:4. Podoplanin (clone 8.1.1; sc-53533, Santa Cruz Biotechnology, Inc., Dallas, TX) was used to immunohistochemically mark lymphatics in paraffin embedded tail sections.
as §1

[7] = system: lymphatic endothelial cell; conditions: in vitro; earlier work [12,13]; cited from earlier work
postsurgical lymphedema = conditions: daily intraperitoneal injections 0.08 mg/kg; earlier work [13]; cited from earlier work
tail lymphedema [8] = test: Dermal and epidermal thickness, H&E stained tails; type: in vivo, BALB/c mice; conditions: 0.08 mg/kg daily i.p.; for mean epidermal tail thickness / dermal thickness: mean±standard error
Procedure: as §2
Slides were counterstained with hematoxylin and mounted. All images were obtained with a Keyence BZ-X700 microscope (Itasca, IL) and epidermal and dermal thickness was measured using ImageJ (National Institutes of Health, Betheseda, MD). The thickest part of the epidermis and dermis was measured in 5 high-power fields per section, as previously described. On the immunohistochemically stained slides, podoplanin stained vessels in the dermis and subcutis were quantified in ImageJ. Two high-power fields per section were randomly selected and then analyzed by a blinded reviewer. The reviewer scored the number of podoplanin stained vessels and the area (mm^2) of the dermis and subcutaneous tissue in each image. Lymphatic vessel density was calculated from the absolute lymphatic number normalized to the dermal and subcutaneous area measured (number of lymphatics/mm^2).^2 For the immunofluorescent stained slides, LYVE-1 stained vessels were quantified with ImageJ, to assess included lymphatic density, lymphatic vessel width, inter-lymphatic vessel distance, branching points, loops and blind-ended sacs.

SMILES: CC1=C(/C=C/C(C)=C\C=C\C(C)=C\C(=O)O)C(C)(C)CCC1 [9-cis RA, 9-cis retinoic acid]
- tail volume compared to control (tail lymphedema [1]; 0.08 mg/kg daily i.p. for 7 days): approached tail volumes similar to the lymphedematous control group past the 4-week time point; also recorded: no significant effect on tail lymphedema or dermal thickening
- tail volume compared to control (tail lymphedema [1]; 0.08 mg/kg daily i.p. for 7 days beginning one week after surgery (delay group)): statistically significant decrease in tail volumes from day-14 onwards; also recorded: decreased tail volume
- tail volume compared to control (tail lymphedema [1]; 0.08 mg/kg daily i.p. for 14 days): approached tail volumes similar to the lymphedematous control group past the 4-week time point; also recorded: no significant difference in tail volume
- tail volume compared to control (tail lymphedema [1]; 0.08 mg/kg daily i.p., continuous (45-day/42-day group)): significantly smaller than the lymphedematous controls
- percent change of ICG fluorescent intensity compared to control (tail lymphedema [2]; 24 hours after ICG injection, all treatment groups): significant decrease in the percent change of fluorescent intensity compared to the control
- ICG fluorescent intensity compared to control (tail lymphedema [2]; 7-day group): no longer significant from the control
- ICG fluorescent intensity compared to control (tail lymphedema [2]; 14-day, 42-day and 7-day delayed groups): significant decrease in fluorescent intensity
- lymphatic clearance (tail lymphedema [3]; high dose 30 mg/kg): improves lymphatic clearance
- lymphatic clearance (tail lymphedema [3]; low dose 10 mg/kg): improves lymphatic clearance
- systemic toxicity by liver and kidney function tests (AST, ALT, BUN) ([4]; 10 mg/kg): minimal systemic toxicity
- systemic toxicity by liver and kidney function tests (AST, ALT, BUN) ([4]; 30 mg/kg): minimal systemic toxicity
- number of branch points, blind-ended sacs, loops, total length, density of lymphatic vessels in uninjured ears vs vehicle control [5]: no significant difference
- lymphatic vessel density compared to control (tail lymphedema [6]; 7-day delay group): strong trend towards improvement but not statistical significance
- lymphatic vessel density compared to control (tail lymphedema [6]; 14-day group): trend towards increased lymphatic density that did not reach statistical significance; also recorded: trending towards significance
- lymphatic vessel density compared to control (tail lymphedema [6]; 42-day/45-day group, tails distal to wound, day 47): significantly increased compared to the controls; also recorded: statistically significant difference
- lymphatic endothelial cell proliferation, migration and vessel formation [7]: significantly increased
- prevention of postsurgical lymphedema (postsurgical lymphedema): significantly prevents development of lymphedema; also recorded: prevents postsurgical lymphedema
- dermal thickening compared to control (tail lymphedema [8]; 7-day group): no significant effect on tail lymphedema or dermal thickening
- mean epidermal tail thickness (tail lymphedema [8]; 7-day group): 109.2±10.21 μm
- dermal thickness (tail lymphedema [8]; 14-day group): 352.4±21.29 μm
- mean epidermal tail thickness (tail lymphedema [8]; 14-day group): 52.07±2.616 μm
- dermal thickness (tail lymphedema [8]; 45-day group): 525.2±25.09 μm
- mean epidermal tail thickness (tail lymphedema [8]; 45-day group): 83.14±8.099 μm
- dermal thickness (tail lymphedema [8]; delay group): 502±30.17 μm
- mean epidermal tail thickness (tail lymphedema [8]; delay group): 73.51±10.94 μm
